These results are taken from the METLIN SMRT retention time set (Domingo-Almenara et al. 2019).

The nature of the series: gradient 5% acetonitrile 3 min, to 50% in 2 min, to 85% in 15 min, held 3 min, 100 µL/min. To be noted: column: Zorbax Extend-C18 2.1 x 50 mm; eluents: water / acetonitrile, 0.1% formic acid. In a few lines:
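Each retention time is based on an adduct peak selected computationally and verified by manual inspection. Measurements used HPLC–quadrupole time-of-flight mass spectrometry in positive and negative ionization mode on mixtures of ~100 pure standards. Chromatography ran on a Zorbax Extend-C18 column (2.1 × 50 mm, 1.8 μm) at 100 μL/min with water and acetonitrile, each containing 0.1% formic acid, and dead and dwell volumes of 40 μL and 900 μL.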
As for `Cc1cc(C)cc(S(=O)(=O)N2CCC(CN3CCCCCC3)CC2)c1`, the RP-LC retention time came to 708 s. For `CCC(=O)N(Cc1ccc(F)cc1)C(C)C(=O)c1c(C)c(C(=O)OC)n(C)c1C` (stereo unspecified) the value was 922 s; for `CC(C)(C)n1c(=O)c2ccc(F)cc2n1CC(=O)N1CCN(c2ccccc2)CC1`, 1180 s. Then `CCCCSc1cc(C)nc(N)n1`, with 698 s. For `COc1ccc(CNC(=O)Cn2ccc3ccc(-c4nnc(C)o4)cc32)cc1` the value was 1080 s; for `Cc1ccc(-c2noc(C3CCCCN3)n2)cc1` (stereo unspecified), 630 s. As for `Cc1ccc(-n2ccc(=O)c(-c3nc(-c4ccc(Br)cc4)no3)n2)cc1`, the RP-LC retention time is 1030 s.

For `Cc1nc(-c2ccc(S(=O)(=O)Nc3ccc(S(N)(=O)=O)cc3)cc2)co1`, the RP-LC retention time stood at 706 s.

Turning to `Cc1nnc(C2CC3(CCN(CCO)CC3)CN2CCc2ccccc2)o1` (stereo unspecified), the RP-LC retention time is 574 s.

Compound `COc1ccc(-c2noc(-c3ccc(NCc4ccc(C)o4)nc3)n2)cc1` gave an RP-LC retention time of 1150 s. For `Cc1cccc(Cn2c(CN3CCC(C(=O)NCc4cccs4)CC3)cc3ccccc32)c1` the value was 805 s; for `CCC(=O)N1CCOc2ccc(NC(=O)C3CC3)cc2C1`, 674 s; for `O=C(COc1ccccc1F)NCC(O)(c1ccccc1)C(F)(F)F` (stereo unspecified), 860 s. Then `CCc1nnc(-c2ccc3ccn(CC(=O)N4CCN(c5ccccc5F)CC4)c3c2)o1`, with 892 s; and `CC(=O)Nc1ccc(Cc2nc(-c3cccc(-c4ccnn4C)c3)no2)cc1`, with 874 s. `CC(C)n1cnc2cc(CNC(=O)c3ccco3)ccc21` came in with an RP-LC retention time of 568 s. `COc1ccc(-c2cc3c(=O)n(Cc4noc(CN5CCCC5)n4)ccn3n2)cc1` had an RP-LC retention time of 646 s. Then `Cc1c(Br)cncc1C(=O)O`, with 620 s. Then `Cc1nnc(N2CCCC(C(=O)NCCCOC(C)C)C2)c2nn(-c3ccccc3)c(C)c12` (stereo unspecified), with 678 s. For `CCc1ccc(S(=O)(=O)Nc2ccc(N3CCCN(C)CC3)cc2C(=O)O)cc1` the value was 650 s; for `O=C(NCCC1=CCCCC1)c1nc(-c2ccnc(N3CCOCC3)c2)no1`, 962 s. `CN(C)C(=O)Cn1cnc2ccccc2c1=O` returned an RP-LC retention time of 583 s.

The compound `COc1cn(CC(=O)Nc2ccc(F)cc2F)c(CO)cc1=O` registered an RP-LC retention time of 565 s. For `O=C(NCCn1nc(-c2ccco2)ccc1=O)c1ccc2c(c1)ncn2-c1ccccc1` the value was 629 s; for `CCc1ccc(-n2nc(N3CCCC(C(=O)NCc4cccc(Br)c4)C3)ccc2=O)cc1` (stereo unspecified), 991 s. `CCc1nc2cc(-c3noc(COc4cccc(C)c4)n3)ccc2o1` registered an RP-LC retention time of 1280 s. Then `CCOC(=O)Cc1n[nH]c(CSc2nc3ccccc3s2)n1`, with 691 s. For `CSc1ccccc1N1CCN(CCCCCC(=O)NC2CCCc3ccccc32)CC1` (stereo unspecified) the value was 855 s; for `O=C(Cn1cnc2nc(N3CCCC(C(=O)NC4CC4)C3)sc2c1=O)Nc1ccc(Cl)cc1` (stereo unspecified), 721 s; for `Cc1ccc(-c2nc(C)c3c(n2)N(Cc2ccccn2)C(=O)CC3)cc1`, 771 s.

The compound `CN[C@H]1CN(c2ccc3c(=O)c(C(=O)O)cn(-c4nccs4)c3n2)C[C@@H]1OC` showed an RP-LC retention time of 599 s. Take `Cc1ccccc1Cn1c(CN2CCC(C(=O)N3CCCCCC3)CC2)cc2ccccc21`: the RP-LC retention time came out at 838 s.

Regarding `CCOC(=O)C1CCCN(c2ncc(S(=O)(=O)c3ccc(C)cc3)c(N)n2)C1` (stereo unspecified), the RP-LC retention time came to 983 s. For `CCCN1C(=O)c2cc(C(=O)NCc3ccccc3)nn2CC1(C)C(=O)NC1CCCC1` (stereo unspecified) the value was 605 s; for `O=C(Nc1ccc2c(c1)CNCCO2)C1CC1`, 527 s.

In turn, `O=C(Nc1cc(-c2ccccn2)no1)C1CCCCC1` returned an RP-LC retention time of 827 s. Then `Cc1cc(C(F)(F)F)nn1CC(=O)NCC1Cn2cccc2CN1C` (stereo unspecified), with 726 s; and `O=C(Nc1ccc2nccnc2c1)c1csc2c1CCCC2`, with 804 s; and `CCOC(=O)c1c(S(=O)(=O)N2CCC(C(=O)NC3CCCC3)CC2)c(C)n(C)c1C`, with 766 s. Then `CN(CC(=O)NC1CCCC1)S(=O)(=O)c1ccc2nc(-c3ccccc3)[nH]c2c1`, with 754 s; and `CS(=O)(=O)c1cccc(-c2nnc(NC(=O)c3ccc(Cl)s3)o2)c1`, with 711 s. As for `Fc1cccc(Cc2noc(-c3nc(-c4ccccc4F)no3)n2)c1`, the RP-LC retention time was 1130 s. For `CCCCn1nc2ccc(S(=O)(=O)N3CCCCCC3)cn2c1=O` the value was 957 s; for `Cc1nc(-c2ccccc2Cl)sc1C(=O)N[C@@H](Cc1c[nH]c2ccccc12)C(=O)O`, 898 s. Turning to `Cc1noc(C2(NC(=O)c3ccc(C)s3)CCCCC2)n1`, the RP-LC retention time is 868 s. For `O=C(Nc1cc(-c2cccs2)no1)C1(c2ccccc2)CC1`, the RP-LC retention time is 1050 s. Then `Cc1nc(-c2cc(S(=O)(=O)NCc3ccccc3Cl)c(C)s2)cs1`, with 1080 s. For `COc1cccc(Cn2c(=O)c3sccc3n(Cc3nc(-c4ccc(F)cc4)no3)c2=O)c1` the value was 1070 s. `CCn1nnc2cc(-c3noc(CNC(=O)Cc4ccc(Cl)cc4)n3)ccc21` registered an RP-LC retention time of 816 s. Then `CCn1cc(-c2ccc(C)cc2)cc1C(=O)N1CCN(C)CC1`, with 657 s; and `O=C(NCc1nc2ccccc2n1CC(=O)N1CCCC1)c1ccco1`, with 587 s; and `COc1cccc(CNC(=O)C2CCN(S(=O)(=O)c3cn(C(C)C)cn3)CC2)c1`, with 714 s.

Consider `CCOc1ccc(-n2ccn3cc(-c4ccc(C)cc4)nc3c2=O)cc1`, for which the RP-LC retention time amounted to 879 s. For `CN1C(=O)c2cc(C(=O)NCCc3ccccc3)nn2CC1(C)C(=O)NC1CCCCC1` (stereo unspecified) the value was 812 s. Then `CC(=O)SCC(Cc1ccccc1)C(=O)NCC(=O)OCc1ccccc1` (stereo unspecified), with 1080 s; and `O=C(Nc1ccc2c(c1)C(=O)Nc1ccccc1O2)c1ccc2nsnc2c1`, with 773 s. Then `COc1ccc(CNC(=O)c2cn3ccc(C)cc3n2)cc1OC`, with 604 s. As for `CCOC(=O)c1c(S(=O)(=O)N2CCC(C(=O)NCc3cccc(C)c3)CC2)c(C)n(C)c1C`, the RP-LC retention time turned out to be 841 s. Then `COc1ccc(C(C)NC(=O)Cc2c[nH]c3ncccc23)cc1` (stereo unspecified), with 614 s; and `Cc1nc(N2CCCC(C(=O)Nc3ccc(F)cc3)C2)c2c(C)c(C)oc2n1` (stereo unspecified), with 910 s. Take `COc1ccc(NC(=O)CN2CCc3[nH]c4c(C)cc(F)cc4c(=O)c3C2)cc1`: the RP-LC retention time amounted to 600 s.
